According to patent US8586505B2 (SDS Biotech K. K., priority 2009, dated 2013):

Legend:
Type in all cases: in vivo
[1] = tested on: Sphaerotheca fuliginea; experiment: Test of examining control effect on Sphaerotheca fuliginea (potted cucumber plants); conditions: Podosphaera fuliginea, 336 h; 10% wettable powder adjusted to 125 ppm, 15 ml/pot sprayed on potted cucumber plants one day before spray inoculation; assessed after 14 days in greenhouse; read-out: Determination of control effect (preventive value) on Sphaerotheca fuliginea
Method in brief: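 Control effect rated high at preventive value 60–100% and low below 60%, from lesion area relative to untreated plants 14 days after spray inoculation with S. fuliginea (1.0×10^5 cells/ml). Compound applied at 125 ppm as wettable-powder spray one day before inoculation, on 2nd-leaf-stage Sagamihanjiro cucumber.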

[2] = tested on: Pseudoperonospora cubensis; experiment: Test of examining control effect on Pseudoperonospora cubensis (potted cucumber plants); conditions: 96 h, 10% wettable powder adjusted to 125 ppm, 15 ml/pot sprayed on potted cucumber plants one day before spray inoculation, assessed after 1 day wet chamber and 3 days greenhouse, read-out: Determination of control effect (preventive value) on Pseudoperonospora cubensis
Method in brief: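 Preventive treatment: 125 ppm sample agent solution (from 10% wettable powder) sprayed at 15 ml/pot on 2.5-leaf Sagamihanjiro cucumbers, then P. cubensis inoculated next day at 1.0×10^4 cells/ml. Incubation was 1 day wet at 21° C plus 3 days greenhouse. Lesion area rate compared with untreated gives preventive value (≥60% high).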

[3] = tested on: Phytophthora infestans; experiment: whole plant or invertebrate; conditions: in Solanum lycopersicum, 96 h, read-out: Determination of control effect (preventive value)

Row | SMILES | pest or weed control at 125 µg/mL [1] [%] | pest or weed control at 125 µg/mL [2] [%] | pest or weed control at 125 ppm [3] [%]
1 | C(#Cc1cscn1)CCNc1ncnc2ccccc12 [compound 210] | 60 to 100 | 60 to 100 | 60 to 100
2 | Cc1nc(C#CCCNc2ncnc3ccccc23)cs1 [compound 211] | 60 to 100 | 60 to 100 | 60 to 100
3 | COc1nc(C#CCCNc2ncnc3ccccc23)cs1 [compound 212] | 60 to 100 | 60 to 100 | 60 to 100
4 | COc1ccccc1Oc1nc(C#CCCNc2ncnc3ccccc23)cs1 [compound 215] | 60 to 100 | 60 to 100 | 60 to 100
5 | N#Cc1ccccc1Oc1nc(C#CCCNc2ncnc3ccccc23)cs1 [compound 221] | 60 to 100 | 60 to 100 | 0 to 60
6 | Fc1ccccc1Oc1nc(C#CCCNc2ncnc3ccccc23)cs1 [compound 224] | 60 to 100 | 60 to 100 | 60 to 100
7 | Fc1ccc(Oc2nc(C#CCCNc3ncnc4ccccc34)cs2)cc1 [compound 226] | 60 to 100 | 60 to 100 | 60 to 100
8 | C(#Cc1csc(Oc2ccccc2)n1)CCNc1ncnc2ccccc12 [compound 227] | 60 to 100 | 60 to 100 | 60 to 100
9 | C(#Cc1csc(N2CCCCC2)n1)CCNc1ncnc2ccccc12 [compound 228] | 0 to 60 | 60 to 100 | 0 to 60
10 | CC(CC#Cc1ccccc1)Nc1ncnc2sccc12 (stereo not drawn) [compound 229] | 60 to 100 | 60 to 100 | 0 to 60
11 | CC(CC#Cc1ccc(F)cc1)Nc1ncnc2sccc12 (stereo not drawn) [compound 230] | 60 to 100 | 60 to 100 | 60 to 100
12 | CC(CC#Cc1cccc(C(F)(F)F)c1)Nc1ncnc2sccc12 (stereo not drawn) [compound 234] | 60 to 100 | 60 to 100 | 0 to 60
13 | COc1ccccc1C#CCC(C)Nc1ncnc2sccc12 (stereo not drawn) [compound 236] | 60 to 100 | 60 to 100 | 0 to 60
14 | CC(CC#Cc1ccccc1S(C)(=O)=O)Nc1ncnc2sccc12 (stereo not drawn) [compound 237] | 60 to 100 | 60 to 100 | 60 to 100
15 | CC(CC#Cc1ccccc1OC(C)C)Nc1ncnc2sccc12 (stereo not drawn) [compound 242] | 60 to 100 | 60 to 100 | 0 to 60
16 | CC(CC#Cc1ccccc1CO)Nc1ncnc2sccc12 (stereo not drawn) [compound 243] | 60 to 100 | 60 to 100 | 60 to 100
17 | CC(CC#Cc1ccc(F)cc1CO)Nc1ncnc2sccc12 (stereo not drawn) [compound 244] | 60 to 100 | 60 to 100 | 60 to 100
18 | Cc1cc(Cl)ccc1C#CCC(C)Nc1ncnc2sccc12 (stereo not drawn) [compound 250] | 60 to 100 | 60 to 100 | 60 to 100
19 | CC(CC#Cc1c(Cl)cccc1Cl)Nc1ncnc2sccc12 (stereo not drawn) [compound 251] | 60 to 100 | 60 to 100 | 0 to 60
20 | CC(CC#Cc1c(Cl)cccc1C(F)(F)F)Nc1ncnc2sccc12 (stereo not drawn) [compound 252] | 60 to 100 | 60 to 100 | 0 to 60
21 | CC(CC#Cc1ccc(Cl)c(C(F)(F)F)c1)Nc1ncnc2sccc12 (stereo not drawn) [compound 254] | 0 to 60 | 60 to 100 | 0 to 60
22 | CC(CC#Cc1ccc(S(C)(=O)=O)cc1Cl)Nc1ncnc2sccc12 (stereo not drawn) [compound 256] | 60 to 100 | 60 to 100 | 60 to 100
